Reference: patent publication US5852050A, “Preparation for treating wounds or hemorrhoids” (Kaken Pharmaceutical Co., Ltd., priority 1992, dated 1998)
Entries after “also recorded” stand apart in the source; their conditions may differ. Read-outs that look alike come from different tables or passages of the source.

What was measured:
[1] = tested on: full-thickness skin layer wounds of diabetic mice; test: Effect of Beraprost on Wound Healing in full-thickness skin wound model of diabetic mice; format: in vivo, hereditary diabetic mice (C57BL/KsJ-dbm (db+/db+))
Description: Effect of Beraprost on Wound Healing in Full Sickness Wound Model of Diabetic Mice Whose Full-Thickness Skin Layer was Ablated
Hair on the backs of hereditary diabetic mice (C57BL/KsJ-dbm (db+/db+), male, 11 to 12 weeks of age, 6 mice per group) was removed one day before a test. The back portions of the mice were cleaned with ethanol under ether anesthesia, and circular full-thickness skin layer wounds (2 cm^2) were formed in the middle portions of the backs with surgical curved scissors.
Beraprost (sodium salt) as a test medicament was prepared in the form of a saline solution containing 20 % ethanol, and the saline solution was dropwise administered at a dosage of 5 μg/10 μl/cm^2 ×14 times (once per day for 14 days). As control, a solution (vehicle) containing no medicament was administered.
For evaluating the effects of the test medicament, the wound surfaces were traced on plastic sheets at intervals of 2-3 days, and measured for wound areas with a planimeter. The ratios of the wound areas to the area immediately after the skin ablation were calculated, and the numbers of days required for the visual completion of epidermization (complete healing) from the skin-removed wounds were used as indices.
Further, the degrees of the vascularization and granulation of wound surfaces were visually scored, and changes with the passage of days and side effects were observed.
Further, an exudate was collected 9 days after the skin ablation, and a mixture of the exudate with a saline solution used for washing the wound was measured for a leucocyte number through a microscope.
Further, the mice were sacrificed by ether anesthesia on 31th day, and skins of the wound portions were cut off and fixed with a 10% neutral buffer formalin solution. Then, paraffin sections, Hematoxyrin-Eosin-stained specimens and Masson trichrome-stained specimens were prepared according to conventional methods and observed through a microscope.

Solubility in water = format: physicochemical; settings: beraprost or a salt thereof, powder
[2] = tested on: Experimental Hemorrhoids Model in Rats; test: Therapy effects on experimental hemorrhoids model in rats (croton oil); format: in vivo, Male SLC: Wistar rats; settings: for Wet weight of anus-rectum: twice a day for 4 days, average ± standard error, * P < 0.05 vs control
Procedure: (§1) Prevention and Therapy Effects on Experimental Hemorrhoids Model in Rats
(§2) A mixture of 1 volume of distilled water, 4 volumes of pyridine, 5 volumes of ethyl ether and 10 volumes of a 3% croton oil ethyl ether solution was used. The distilled water and a small amount of ethyl ether were added to, and blended with, the pyridine, and the 3% croton oil ethyl ether solution was added. Further, the remaining ethyl ether was added, and the mixture was vigorously stirred to prepare an inflammation-inducing agent containing croton oil. This solution was prepared just before the test, and stored with ice cooling during the test.
(§3) Beraprost (sodium salt) was dissolved in distilled water to prepare a solution for oral administration and dissolved in a saline solution to prepare a solution for intrarectal administration.
(§4) In the test of effects on the prevention of hemorrhoids, the dosage for oral administration was 0.1, 0.3 or 1.0 mg/kg, and the dosage for intrarectal administration was 0.01, 0.03, 0.1, 0.3 or 1.0 mg/kg. In the tests of effects on the therapy of hemorrhoids, the dosage for oral administration was 0.1 mg/kg, and the dosage for intrarectal administration was 0.03 mg/kg. Further, the dosage of the solution for oral administration was 10 ml/kg, and the dosage of the solution for intrarectal administration was 100 μl/kg.
(§5) Seven to 8 rats were used as one group.
In the test of effects on the therapy of hemorrhoids, inflammation was induced with an inflammation-inducing agent containing croton oil in the same manner as in the test of effects on the prevention. Beraprost was administered twice a day in the morning and evening for 4 days, and the administration was started one day after the induction of inflammation. Rectum-anus portions isolated after 5 days in the same manner as in the test of effects on prevention were measured for a weight.
(§6) In addition, distilled water alone was administered to the control group for oral administration, and a saline solution (vehicle) alone was administered to the control group for intrarectal administration. Further, for comparison, a non-treated group which was neither treated with the inflammation-inducing agent containing croton oil and nor treated with a medicament and which was neither administered with distilled water nor administered with a saline solution was tested in the same manner.
(§7) For the effect of beraprost on the weight of the rectum-anus portion, the difference from the control group was determined according to Student's t test, and for the histological data, the difference from the control group was determined according to Kruskal-Wallis H test. Further, the inhibition ratio was calculated on the basis of the rectum-anus portion average weight of each group by the following equation.
(§8) Inhibition ratio (%)={1-[medicament-administered group-non-treated
(§9) group)/(control group-non-treated group)]}×100

Chemical stability = format: physicochemical; settings: beraprost or a salt thereof, powder
[3] = tested on: Experimental Hemorrhoids Model in Rats; test: Prevention effects on experimental hemorrhoids model in rats (croton oil); format: in vivo, Male SLC: Wistar rats; design: Mucosa Bleeding, Necrosis, Peeling (total length from anus transition portion) / Mucosa Red thrombus (number of thrombus) / Mucosa Epithelium Activation, number of rats / Mucosa Congestion, number of rats / Submucosa Swelling, number of rats / Submucosa Inflammatory cell infiltration, number of rats: dose or concentration left out as unconfirmed; settings: for Submucosa Inflammatory cell infiltration, number of rats / Mucosa Congestion, number of rats / Mucosa Epithelium Activation, number of rats / Submucosa Swelling, number of rats: 8 rats
Procedure: as §1, §2, §3, §4, §5
In the test of prevention of hemorrhoids, beraprost was orally or intrarectally administered, and 30 minutes after the administration, 100 μl of the inflammation-inducing agent containing croton oil was infiltrated into the tampon of a swab and the tampon was inserted into the anus of each rat under no anesthesia for 10 seconds to induce inflammation.
Three hours after the induction of inflammation, the rats were sacrificed by bleeding under anesthesia with ethyl ether, and a rectum-anus portion was taken from each rat such that it was exactly 20 mm long from a circular hairline on the anus epithelium, and measured for a weight.
Further, in the intrarectally administered group, the isolated rectum-anus portion was fixed with a 10% neutral buffer formalin solution, and paraffin sections, Hematoxyrin-Eosin-stained specimens and Phosphotungstic acid hematoxyin-stained specimens were prepared according to conventional methods. Then, these were observed and their photographs were taken through an optical microscope The histological data obtained by the intrarectal administration of beraprost were examined.
as §6, §7, §8, §9

[4] = background statement; cited from earlier work
[5] = 9 days after the administration, as compared with vehicle
[6] = 9 days after the administration, mean ± S.E., ** P < 0.01 vs vehicle
[7] = score + (Low degree), 31 days after the skin ablation
[8] = score + (Low degree), 31 days after the skin ablation, distribution * P < 0.05 (H test)
[9] = score ++ (Intermediate degree), 31 days after the skin ablation
[10] = score +++ (High degree), 31 days after the skin ablation
[11] = score - (Not affected), 31 days after the skin ablation
[12] = intrarectal 0.03 mg/kg, on average, P<0.01
[13] = intrarectal, average ± standard error, ** P < 0.01
[14] = score + (Low degree), intrarectal, distribution XX P < 0.01
[15] = score ++ (Intermediate degree), intrarectal

## CC#CCC(C)[C@H](O)/C=C/[C@@H]1[C@H]2c3cccc(CCCC(=O)O)c3O[C@H]2C[C@H]1O (relative stereo) [Beraprost, (±)-(1R*, 2R*,3aS*,8bS*)-2,3,3a,8b-tetrahydro-2-hydroxy-1-[(E)-(3S*)-3-hydroxy-4-methyl-1-octen-6-ynyl]-1H-cyclopenta[b]benzofuran-5-butyric acid]
[1]; 3 days after administration, 5 μg/10 μl/cm^2 once per day for 14 days, mean ± S.E.
  change ratio of wound area: 95.7 ± 2.50%
[1]; [5]
  amount of exudate (in words): clear increase
  number of infiltrated leucocyte (in words): clear increase
[1]; [6]
  Amount of exudate: 36.6 ± 10.73 µL
  Number of infiltrated leucocyte: 110.1 ± 31.66 × 10^4 cells/site
[1]; 10 days after administration, mean ± S.E., ** P < 0.01 vs vehicle
  change ratio of wound area: 24.4%
[1]; 21 days after administration, mean ± S.E., * P < 0.05 vs vehicle
  change ratio of wound area: 0.1%
[1]; 31 days after the skin ablation
  histology of skin ablation portions (in words): the whole areas were covered with regenerated skin and the exudate of the dermis disappeared; also recorded: the tissue showed transition to fibrosis, no formation of abnormal tissue or no scar of excess formation was shown, and normal wound healing was shown
[1]; day after administration
  completion of healing first observed: from the twenty-first day after administration
[1]; from the sixth day after administration, as compared with vehicle
  wound surfaces (decrease, in words): remarkable decreases
[1]; mean ± S.E., ** P < 0.01 vs vehicle
  Days until complete healing: 22 days
[1]; mouse, in vivo
  systemic side effects: no systemic side effects
  weight difference from vehicle-administered group: no weight difference was observed
[1]; [7]
  Dermis, Subcutaneous tissue Exudate, number of cases: 1 cases in six mice
  Epidermis Hypertrophy, number of cases: 1 cases in six mice
  Epidermis Regeneration, number of cases: 0 cases in six mice
[1]; [8]
  Dermis, Subcutaneous tissue Fibrosis, number of cases: 0 cases in six mice
  Dermis, Subcutaneous tissue Granulation, number of cases: 2 cases in six mice
[1]; [9]
  Dermis, Subcutaneous tissue Fibrosis, number of cases: 2 cases in six mice
  Dermis, Subcutaneous tissue Granulation, number of cases: 0 cases in six mice
[1]; score ++ (Intermediate degree), 31 days after the skin ablation, distribution * P < 0.05 (H test)
  Epidermis Regeneration, number of cases: 0 cases in six mice
[1]; [10]
  Dermis, Subcutaneous tissue Fibrosis, number of cases: 4 cases in six mice
  Epidermis Regeneration, number of cases: 6 cases in six mice
[1]; [11]
  Dermis, Subcutaneous tissue Fibrosis, number of cases: 0 cases in six mice
  Dermis, Subcutaneous tissue Granulation, number of cases: 4 cases in six mice
  Epidermis Regeneration, number of cases: 0 cases in six mice
[1]; score - (Not affected), 31 days after the skin ablation, distribution * P < 0.05 (H test)
  Dermis, Subcutaneous tissue Exudate, number of cases: 5 cases in six mice
[1]; visual, as compared with vehicle-administered group
  vascularization and granulation on the wound surfaces: clear expeditious progress in the vascularization and granulation
Solubility in water
  solubility in water: soluble in water
[2]; i.r. 0.03 mg/kg
  Inhibition ratio: 31.4%
  Wet weight of anus-rectum: 368.5 ± 27.35 mg
[2]; oral 0.1 mg/kg and intrarectal 0.03 mg/kg, P<0.05
  activity for inhibiting the swelling (in words): significant (P<0.05) activity for inhibiting the swelling
[2]; p.o. 0.1 mg/kg
  Inhibition ratio: 27.1%
  Wet weight of anus-rectum: 380.7 ± 23.74 mg
Chemical stability
  chemical stability: chemically stable
[3]; intrarectal
  dosage group with the largest effect: 0.03 mg/kg
[3]; intrarectal 0.01 mg/kg
  Inhibition ratio: 22.9%
[3]; intrarectal 0.01 mg/kg, average ± standard error, ** P < 0.01 vs control
  Wet weight of anus-rectum: 303.3 ± 6.25 mg
[3]; intrarectal 0.03 mg/kg
  Inhibition ratio: 35.8%
  histology of rectum (in words): the degrees of swelling and inflammatory cell infiltration lowered; also recorded: the mucosal epithelial cell nucleus was more densely stained than in a normal portion, and cells which appeared to be in an active state were distinctly observed; also recorded: the degree of congestion was lowered
[3]; intrarectal 0.03 mg/kg, average ± standard error, ** P < 0.01 vs control
  Wet weight of anus-rectum: 277.3 ± 12.88 mg
[3]; [12]
  number of blood vessels having red thrombus: 6.8±2.35
  range of bleeding, necrosis and peeling of mucosal layer: 5.4±0.19 mm
[3]; intrarectal 0.1 mg/kg
  Inhibition ratio: 30.1%
[3]; intrarectal 0.1 mg/kg, average ± standard error, ** P < 0.01 vs control
  Wet weight of anus-rectum: 288.7 ± 5.63 mg
[3]; intrarectal 0.3 mg/kg
  Inhibition ratio: 24.6%
[3]; intrarectal 0.3 mg/kg, average ± standard error, ** P < 0.01 vs control
  Wet weight of anus-rectum: 299.7 ± 9.74 mg
[3]; intrarectal 1.0 mg/kg
  Inhibition ratio: 20.5%
[3]; intrarectal 1.0 mg/kg, average ± standard error, * P < 0.05 vs control
  Wet weight of anus-rectum: 308.0 ± 14.51 mg
[3]; intrarectal 0.01 to 1.0 mg/kg, P<0.05 to 0.01
  inhibition of rectum-anus weight increase (in words): significant inhibition activity
[3]; [13]
  Mucosa Bleeding, Necrosis, Peeling (total length from anus transition portion): 5.4 ± 0.19 mm
  Mucosa Red thrombus (number of thrombus): 6.8 ± 2.35
[3]; oral 0.1 mg/kg
  Inhibition ratio: 24.5%
[3]; oral 0.1 mg/kg, average ± standard error, ** P < 0.01 vs control
  Wet weight of anus-rectum: 307.1 ± 5.87 mg
[3]; oral 0.3 mg/kg
  Inhibition ratio: 32.3%
[3]; oral 0.3 mg/kg, average ± standard error, ** P < 0.01 vs control
  Wet weight of anus-rectum: 292.5 ± 11.28 mg
[3]; oral 1.0 mg/kg
  Inhibition ratio: 39.3%
[3]; oral 1.0 mg/kg, average ± standard error, ** P < 0.01 vs control
  Wet weight of anus-rectum: 279.3 ± 8.32 mg
[3]; oral 0.1 to 1.0 mg/kg, depending upon the dosage
  swelling inhibition activity (in words): clear swelling inhibition activity depending upon the dosage
[3]; orally and intrarectally administered
  swelling in rectum-anus portion and histopathological data (overall, in words): clearly inhibits the swelling; also recorded: remarkable effects in histopathological data
[3]; score + (Low degree), intrarectal, distribution X P < 0.05
  Submucosa Inflammatory cell infiltration, number of rats: 5
[3]; [14]
  Mucosa Congestion, number of rats: 8
  Mucosa Epithelium Activation, number of rats: 2
[3]; [15]
  Mucosa Congestion, number of rats: 0
  Mucosa Epithelium Activation, number of rats: 6
  Submucosa Inflammatory cell infiltration, number of rats: 3
[3]; score ++ (Intermediate degree), intrarectal, distribution XX P < 0.01
  Submucosa Swelling, number of rats: 8
[3]; score +++ (High degree), intrarectal
  Submucosa Swelling, number of rats: 0
[3]; score - (No change), intrarectal
  Mucosa Epithelium Activation, number of rats: 0
[4]
  chemical stability: chemically stable
